From US20260256794A1, “Oral Dynamine Formulations and Methods Therefor” (Ortho-Nutra, LLC, priority 2023, published 2026)

Legend:
subjects [1] = assay: VAS-Sustained Energy; type: in vivo, human; design: VAS-Sustained Energy rating, Mean / VAS-Sustained Energy changes from baseline, Mean Difference ± SE / VAS-Sustained Energy Δ, Mean Difference ± SE / VAS-Sustained Energy area under the curve, Mean Difference ± SE / VAS-Sustained Energy area under the curve, Mean: scale not given here; settings: for VAS-Sustained Energy Δ, effect size d / VAS-Sustained Energy Δ from 0 min, Mean / VAS-Sustained Energy Δ, Mean Difference ± SE: females; for VAS-Sustained Energy Δ, effect size d: vs placebo; for VAS-Sustained Energy Δ, Mean Difference ± SE: B vs A (placebo)
Description: (§1) The inventors have discovered various compositions and methods of improving various indices of neurological and neuroenergetic functions by administering 100 mg (once daily) dosages of DYNAMINE™ (dosage between 1.0 and 1.4 mg/kg) as described in the following:
(§2) All neuroenergetic tests as listed below were performed and data were collected after 0 and 4 days of assigned supplements (with acute effects also measured at day 4 over 180 minutes):
(§3) All VAS Measurement (Energy, Sustained Energy, Mental Stamina, Ability to Focus, Ability to Concentrate, Motivation to Accomplish Difficult Tasks, Drive, Vigor, Level of Positive Outlook, Mood, Feelings of Well-Being, Tolerate Stress); Day 0: Two tests were completed. The average of both scores was computed and this value was used in all statistical analysis. Day 4 (0 minutes after ingesting dose #4): Two tests were completed. The average of both scores was computed and this value was used in all statistical analysis. Day 4 (60, 120, and 180 minutes after ingesting dose #4): One test was completed at each time point.
(§4) Neuroenergic parameters are inherently subjective, nevertheless significant in human behavior and well-being. To allow for a standardization among different subjects, the following experiments were performed using a visual analog scale using anchor statements (lowest possible/highest possible) in which subjects were asked to rate their subjective experience with respect to the specific neuroenergic parameters tested.
VAS-Sustained Energy: In this subjective test, subjects were asked to rate their personal level of energy on a VAS scale using the prompt of “My level of sustained energy right now is . . . ” (with rating lowest possible to highest possible)”. Results were collected as noted above and Table 6 provides exemplary results for Day 0 versus Day 4 ratings, whereas Table 7 provides exemplary acute results measured at Day 4 over a duration of 180 minutes.

subjects [2] = assay: VAS-Drive; type: in vivo, human; design: VAS-Drive rating, Mean / VAS-Drive changes from baseline, Mean Difference ± SE: scale not given here; VAS-Drive area under the curve, Mean Difference ± SE / VAS-Drive area under the curve, Mean: unit not given here
Description: as §1, §2, §3, §4
VAS-Drive: In this subjective test, subjects were asked to rate their personal level of energy on a VAS scale using the prompt of “My drive right now is . . . ” (with rating lowest possible to highest possible)”. Results were collected as noted above and Table 22 provides exemplary results for Day 0 versus Day 4 ratings, whereas Table 23 provides exemplary acute results measured at Day 4 over a duration of 180 minutes.

subjects [3] = assay: VAS-Vigor; type: in vivo, human; design: VAS-Vigor rating, Mean / VAS-Vigor changes from baseline, Mean Difference ± SE / VAS-Vigor area under the curve, Mean Difference ± SE / VAS-Vigor area under the curve, Mean: scale not given here
Description: as §1, §2, §3, §4
VAS-Vigor: In this subjective test, subjects were asked to rate their personal level of energy on a VAS scale using the prompt of “My level of vigor right now is . . . ” (with rating lowest possible to highest possible)”. Results were collected as noted above and Table 25 provides exemplary results for Day 0 versus Day 4 ratings, whereas Table 26 provides exemplary acute results measured at Day 4 over a duration of 180 minutes. […] Of note, it should be appreciated that drive is also often a function of dopamine activation. As above, is it therefore contemplated that methylliberine may also have an agonist effect on dopamine receptors or signaling.

subjects [4] = assay: VAS-Positivity; type: in vivo, human; design: VAS-Positivity rating, Mean: scale not given here
Description: as §1, §2, §3, §4
VAS-Positivity: In this subjective test, subjects were asked to rate their personal level of energy on a VAS scale using the prompt of “My level of positive outlook right now is . . . ” (with rating lowest possible to highest possible)”. Results were collected as noted above and Table 28 provides exemplary results for Day 0 versus Day 4 ratings, whereas Table 29 provides exemplary acute results measured at Day 4 over a duration of 180 minutes.

[5] = cited from earlier work
[6] = 100 mg once daily, Day 4, 0-180 min
[7] = 100 mg once daily, Day 4, 0-180 min, vs Group A (placebo)
[8] = 100 mg once daily, Day 4, 0 min after dose #4
[9] = 100 mg once daily, Day 4, 60 min-0 min, vs Group A (placebo)
[10] = 100 mg once daily, Day 4, 60 min after dose #4
[11] = 100 mg once daily, Day 4, 120 min-0 min, vs Group A (placebo)
[12] = 100 mg once daily, Day 4, 120 min after dose #4
[13] = 100 mg once daily, Day 4, 180 min-0 min, vs Group A (placebo)
[14] = 100 mg once daily, Day 4, 180 min after dose #4
[15] = 100 mg once daily, Day 4, Δ @ 60 min
[16] = 100 mg once daily, Day 4, Δ @ 120 min
[17] = 100 mg once daily, Day 4, Δ @ 180 min

COc1nc2c(c(=O)n1C)n(C)c(=O)n2C [methylliberine, 2-methoxy-1,7,9-trimethylpurine-6,8-dione]
VAS-Sustained Energy area under the curve, Mean (subjects [1]; [6]): 1073
VAS-Sustained Energy area under the curve, Mean Difference ± SE (subjects [1]; [7]): 45.2 ± 41.7
VAS-Sustained Energy area under the curve, effect size d (subjects [1]; [7]): −0.13
VAS-Sustained Energy rating, Mean (subjects [1]; [8]): 5.7
VAS-Sustained Energy changes from baseline, Mean Difference ± SE (subjects [1]; [9]): 0.22 ± 0.22
VAS-Sustained Energy changes from baseline, effect size d (subjects [1]; [9]): 0.27
VAS-Sustained Energy rating, Mean (subjects [1]; [10]): 6.2
VAS-Sustained Energy changes from baseline, Mean Difference ± SE (subjects [1]; [11]): −0.11 ± 0.25
VAS-Sustained Energy changes from baseline, effect size d (subjects [1]; [11]): −0.11
VAS-Sustained Energy rating, Mean (subjects [1]; [12]): 6.3
VAS-Sustained Energy changes from baseline, Mean Difference ± SE (subjects [1]; [13]): 0.24 ± 0.23
VAS-Sustained Energy changes from baseline, effect size d (subjects [1]; [13]): 0.24
VAS-Sustained Energy rating, Mean (subjects [1]; [14]): 6.5
VAS-Sustained Energy rating, Mean (subjects [1]; Day 0 (before supplementation)): 5.6
VAS-Sustained Energy Δ, effect size d (subjects [1]; 100 mg once daily, Day 4, 60 min): 0.86
VAS-Sustained Energy Δ, effect size d (subjects [1]; 100 mg once daily, Day 4, 120 min): 0.62
VAS-Sustained Energy Δ, effect size d (subjects [1]; 100 mg once daily, Day 4, 120 min, listed as B): 0.03
VAS-Sustained Energy Δ, effect size d (subjects [1]; 100 mg once daily, Day 4, 180 min): 0.62
VAS-Sustained Energy Δ from 0 min, Mean (subjects [1]; [15]): 0.85
VAS-Sustained Energy Δ, Mean Difference ± SE (subjects [1]; [15]): 0.74 ± 0.29
VAS-Sustained Energy Δ from 0 min, Mean (subjects [1]; [16]): 0.88
VAS-Sustained Energy Δ, Mean Difference ± SE (subjects [1]; [16]): 0.02 ± 0.35
VAS-Sustained Energy Δ from 0 min, Mean (subjects [1]; [17]): 1.28
VAS-Sustained Energy Δ, Mean Difference ± SE (subjects [1]; [17]): 0.72 ± 0.31
VAS-Drive area under the curve, Mean (subjects [2]; [6]): 1110
VAS-Drive area under the curve, Mean Difference ± SE (subjects [2]; [7]): 20.4 ± 37.8
VAS-Drive area under the curve, effect size d (subjects [2]; [7]): 0.06
VAS-Drive rating, Mean (subjects [2]; [8]): 5.9
VAS-Drive changes from baseline, Mean Difference ± SE (subjects [2]; [9]): −0.06 ± 0.27
VAS-Drive changes from baseline, effect size d (subjects [2]; [9]): −0.07
VAS-Drive rating, Mean (subjects [2]; [10]): 6.1
VAS-Drive changes from baseline, Mean Difference ± SE (subjects [2]; [11]): −0.16 ± 0.28
VAS-Drive changes from baseline, effect size d (subjects [2]; [11]): −0.15
VAS-Drive rating, Mean (subjects [2]; [12]): 6.2
VAS-Drive changes from baseline, Mean Difference ± SE (subjects [2]; [13]): 0.33 ± 0.35
VAS-Drive changes from baseline, effect size d (subjects [2]; [13]): 0.26
VAS-Drive rating, Mean (subjects [2]; [14]): 6.4
VAS-Drive rating, Mean (subjects [2]; Day 0 (before supplementation)): 5.8
VAS-Vigor area under the curve, Mean (subjects [3]; [6]): 1112
VAS-Vigor area under the curve, Mean Difference ± SE (subjects [3]; [7]): 21.8 ± 41.5
VAS-Vigor area under the curve, effect size d (subjects [3]; [7]): 0.07
VAS-Vigor rating, Mean (subjects [3]; [8]): 5.8
VAS-Vigor changes from baseline, Mean Difference ± SE (subjects [3]; [9]): 0.02 ± 0.23
VAS-Vigor changes from baseline, effect size d (subjects [3]; [9]): 0.02
VAS-Vigor rating, Mean (subjects [3]; [10]): 6.2
VAS-Vigor changes from baseline, Mean Difference ± SE (subjects [3]; [11]): −0.12 ± 0.25
VAS-Vigor changes from baseline, effect size d (subjects [3]; [11]): 0.13
VAS-Vigor rating, Mean (subjects [3]; [12]): 6.3
VAS-Vigor changes from baseline, Mean Difference ± SE (subjects [3]; [13]): 0.43 ± 0.28
VAS-Vigor changes from baseline, effect size d (subjects [3]; [13]): −0.41
VAS-Vigor rating, Mean (subjects [3]; [14]): 6.4
VAS-Vigor rating, Mean (subjects [3]; Day 0 (before supplementation)): 5.8
VAS-Positivity area under the curve, Mean (subjects [4]; [6]): 1235
VAS-Positivity area under the curve, Mean Difference ± SE (subjects [4]; [7]): 15.0 ± 43.0
VAS-Positivity area under the curve, effect size d (subjects [4]; [7]): 0.05
VAS-Positivity rating, Mean (subjects [4]; [8]): 6.4
VAS-Positivity changes from baseline, Mean Difference ± SE (subjects [4]; [9]): 0.07 ± 0.19
VAS-Positivity changes from baseline, effect size d (subjects [4]; [9]): 0.08
VAS-Positivity rating, Mean (subjects [4]; [10]): 6.8
VAS-Positivity changes from baseline, Mean Difference ± SE (subjects [4]; [11]): −0.05 ± 0.25
VAS-Positivity changes from baseline, effect size d (subjects [4]; [11]): 0.05
VAS-Positivity rating, Mean (subjects [4]; [12]): 7.0
VAS-Positivity changes from baseline, Mean Difference ± SE (subjects [4]; [13]): 0.46 ± 0.27
VAS-Positivity changes from baseline, effect size d (subjects [4]; [13]): 0.43
VAS-Positivity rating, Mean (subjects [4]; [14]): 7.0
VAS-Positivity rating, Mean (subjects [4]; Day 0 (before supplementation)): 6.6
effect on pharmacokinetics of caffeine ([5]; methylliberine 100 mg administered in combination with caffeine 150 mg): will alter pharmacokinetic effects of caffeine
half-life ([5]; oral, 25 mg and 100 mg, healthy subjects): 1 to 1.4 h
